# From US12702657B2, “Treatment and prevention of dengue disease” (Janssen Pharmaceuticals, Inc., priority 2019, dated 2026)
# Test system: DENV-2 Rega lab strain
# Experiment: Lethal DENV challenge study (survival study) in AG129 mice with 4G2 antibody-dependent enhancement
# Type: in vivo
# Conditions: monitored max. 25 days, 10^6 PFU
# Protocol: In the lethal DENV challenge study (or survival study), antibody-dependent-enhancement (ADE) induced dengue disease is imitated by injecting AG129 mice (n=10 per group) i.p. with Anti-Flavivirus Group Antigen Antibody, clone D1-4G2-4-15 (‘4G2’; Millipore), one day prior to challenge with DENV-2 Rega lab strain (1×10^6 PFU, i.p.). Animals were treated by administering compound (b) by oral gavage with a first administration at one hour prior to infection. The treatment continued for five consecutive days with one administration of compound (b) every 12 hours (twice daily or b.i.d.). (FIG. 15X).
# The mice were divided in several groups (n=8/group for the viremia study and n=10/group for the survival study) representing the following treatment regimens: • (i) vehicle, 80%/20% PEG400/H2O • (ii) compound (b): 30 mg/kg/dose b.i.d. • (iii) compound (b): 10 mg/kg/dose b.i.d. • (iv) compound (b): 3 mg/kg/dose b.i.d. • (v) compound (b): 1 mg/kg/dose b.i.d.
# Next, the impact of compound (b) was assessed on virus-induced disease and mortality when dosed (orally, b.i.d.) for just 5 consecutive days starting at the day of infection (survival study). Animals were monitored for a maximum period of 25 days. All but one (19 of 20) vehicle-treated mice had to be euthanized. At a dose of 30 mg/kg, 90% of the mice survived the viral challenge and at doses of 10, 3 and 1 mg/kg, the survival rate was respectively 80%, 85% and 75% (FIG. 15Z).
smiles,measurement,setting,value
COc1cc(NC(C(=O)N2CCc3ccc(OC(F)(F)F)cc32)c2ccc(Cl)cc2)cc(OCCCC(=O)O)c1 (stereo not shown) [compound (b)],survival rate,1 mg/kg b.i.d. orally for 5 days,75%
same,survival rate,3 mg/kg b.i.d. orally for 5 days,85%
same,survival rate,10 mg/kg b.i.d. orally for 5 days,80%
same,survival rate,30 mg/kg b.i.d. orally for 5 days,90%
